The experiment relates to IL-12 induced STAT4 phosphorylation mediated by TYK2/JAK2. Description: IL-12 induced pSTAT4 in human PBMC. It counts as cell-based. As to conditions: 1 hr compound, 1.7 ng/mL IL-12 for 30 minutes. The method, then:
Human PBMC were isolated from buffy coat and are stored frozen for assays as needed. […] 15 μL of compound or DMSO was added to the well at the desired concentrations and incubated at 1 hr at 37° C. 15 μL of stimulus (final concentration of 1.7 ng/mL IL-12) was added for 30 minutes prior to pSTAT4 and total STAT4 analysis using cell lysates prepared and analyzed by MSD reagents as per manufacturer protocol. The final DMSO concentration of compound in the assay was 0.1%. The IL-12 induced pSTAT4 assay evaluates the inhibition of IL-12 induced STAT4 phosphorlyation mediated by TYK2/JAK2 ([…] complex).

`CNc1cc(Nc2cccn([C@@H]3CCC[C@@H](OC)C3)c2=O)nc2c(C(=O)NC3CC[C@@H]3F)cnn12` (stereo partly drawn) [Compound I-227] gave an IC50 of under 0.1 µM.

Compound `CNc1cc(Nc2cccn([C@@H]3CCC[C@@H](OC)C3)c2=O)nc2c(C(=O)N[C@H]3CC[C@@H]3F)cnn12` [Compound I-228] registered an IC50 of under 0.1 µM.

Consider `CNc1cc(Nc2cccn([C@H]3CCC[C@H](OC)C3)c2=O)nc2c(C(=O)NC3CC[C@@H]3F)cnn12` (stereo partly drawn) [Compound I-230], for which the IC50 was under 0.1 µM.

In the case of `CNc1cc(Nc2cccn([C@H]3CCC[C@H](OC)C3)c2=O)nc2c(C(=O)N[C@H]3CC[C@@H]3F)cnn12` [Compound I-231], the IC50 was under 0.1 µM.

With `CNc1cc(Nc2cccn([C@@H]3CCOC[C@@H]3OC)c2=O)nc2c(C(=O)N[C@@H]3CC[C@@H]3F)cnn12` [Compound I-235], the IC50 is under 0.1 µM.

Compound `CNc1cc(Nc2cccn(C3CCN(CCF)CC3)c2=O)nc2c(C(=O)NC3CC[C@@H]3F)cnn12` (stereo partly drawn) [Compound I-236] gave an IC50 of under 0.1 µM.

The compound `CNc1cc(Nc2cccn(C3CCN(CCF)CC3)c2=O)nc2c(C(=O)N[C@H]3CC[C@@H]3F)cnn12` [Compound I-237] showed an IC50 of under 0.1 µM.

`CNc1cc(Nc2cccn([C@H]3CC[C@@H]3OC)c2=O)nc2c(C(=O)NC3CC[C@H]3O)cnn12` (stereo partly drawn) [Compound I-239] yielded an IC50 of under 0.1 µM.

`CNc1cc(Nc2cccn([C@H]3CC[C@@H]3OC)c2=O)nc2c(C(=O)N[C@H]3CC[C@H]3O)cnn12` [Compound I-240] gave an IC50 of under 0.1 µM.

In turn, `CNc1cc(Nc2cccn([C@@H]3CC[C@H]3OC)c2=O)nc2c(C(=O)N[C@H]3CC[C@H]3O)cnn12` [Compound I-243] had an IC50 of under 0.1 µM.

In the case of `CNc1cc(Nc2cccn([C@H]3C[C@@H](OC)C3)c2=O)nc2c(C(=O)N[C@H]3CC[C@@H]3OC)cnn12` [Compound I-253], the IC50 is under 0.1 µM.

For the compound `CNc1cc(Nc2cccn([C@H]3C[C@H](OC)C3)c2=O)nc2c(C(=O)N[C@H]3CC[C@@H]3OC)cnn12` [Compound I-255], the IC50 was under 0.1 µM.

On to `CNc1cc(Nc2cccn([C@H]3CCC[C@@H](C#N)C3)c2=O)nc2c(C(=O)N[C@@H]3CC[C@H]3OC)cnn12` [Compound I-258], for which the IC50 was under 0.1 µM.

`CNc1cc(Nc2cccn([C@@H]3CCC[C@H](C#N)C3)c2=O)nc2c(C(=O)N[C@@H]3CC[C@H]3OC)cnn12` [Compound I-260] had an IC50 of under 0.1 µM.

Take `CNc1cc(Nc2cccn([C@H]3[C@@H]4COC[C@@H]43)c2=O)nc2c(C(=O)N[C@@H]3CC[C@H]3OC)cnn12` [Compound I-262]: the IC50 is under 0.1 µM.

For `CNc1cc(Nc2cccn(-c3ccccn3)c2=O)nc2c(C(=O)N[C@@H]3CC[C@H]3OC)cnn12` [Compound I-264], the IC50 was under 0.1 µM.

Regarding `CNc1cc(Nc2cccn(-c3ncccc3F)c2=O)nc2c(C(=O)NC3CC[C@H]3OC)cnn12` (stereo partly drawn) [Compound I-265], the IC50 is under 0.1 µM.

`CNc1cc(Nc2cccn(-c3ncccc3F)c2=O)nc2c(C(=O)N[C@@H]3CC[C@H]3OC)cnn12` [Compound I-266]: the IC50 was under 0.1 µM.

Compound `CNc1cc(Nc2cccn([C@@H]3C[C@H]3F)c2=O)nc2c(C(=O)NC3CCC3(F)F)cnn12` (stereo partly drawn) [Compound I-274] showed an IC50 of under 0.1 µM.

As to `CNc1cc(Nc2cccn([C@@H]3C[C@H]3F)c2=O)nc2c(C(=O)N[C@@H]3CCC3(F)F)cnn12` [Compound I-276], the IC50 is under 0.1 µM.

Compound `CNc1cc(Nc2cccn([C@H]3C[C@@H]3F)c2=O)nc2c(C(=O)NC3CCC3(F)F)cnn12` (stereo partly drawn) [Compound I-277] registered an IC50 of under 0.1 µM.

Turning to `CNc1cc(Nc2cccn([C@H]3C[C@@H]3F)c2=O)nc2c(C(=O)N[C@@H]3CCC3(F)F)cnn12` [Compound I-279], the IC50 was under 0.1 µM.

With `CNc1cc(Nc2cccn(C3COC3)c2=O)nc2c(C(=O)NC3CCC3(F)F)cnn12` (stereo not drawn) [Compound I-280], the IC50 was under 0.1 µM.

`CNc1cc(Nc2cccn(C3COC3)c2=O)nc2c(C(=O)N[C@@H]3CCC3(F)F)cnn12` [Compound I-282]: the IC50 is under 0.1 µM.

With `CNc1cc(Nc2cccn([C@H]3C[C@H](F)C3)c2=O)nc2c(C(=O)NC3CCC3(F)F)cnn12` (stereo partly drawn) [Compound I-283], the IC50 was under 0.1 µM.

`CNc1cc(Nc2cccn([C@H]3C[C@H](F)C3)c2=O)nc2c(C(=O)N[C@@H]3CCC3(F)F)cnn12` [Compound I-285] had an IC50 of under 0.1 µM.

In the case of `CNc1cc(Nc2cccn([C@H]3CC[C@H]3O)c2=O)nc2c(C(=O)NC3CCC3(F)F)cnn12` (stereo partly drawn) [Compound I-286], the IC50 is under 0.1 µM.

`CNc1cc(Nc2cccn([C@H]3CC[C@H]3O)c2=O)nc2c(C(=O)N[C@H]3CCC3(F)F)cnn12` [Compound I-287]: the IC50 was under 0.1 µM.

Turning to `CNc1cc(Nc2cccn([C@@H]3CC[C@@H]3O)c2=O)nc2c(C(=O)N[C@H]3CCC3(F)F)cnn12` [Compound I-290], the IC50 was under 0.1 µM.

`CNc1cc(Nc2cccn([C@H]3C[C@H](OC)C3)c2=O)nc2c(C(=O)NC3CCC3(F)F)cnn12` (stereo partly drawn) [Compound I-292] gave an IC50 of under 0.1 µM.

In turn, `CNc1cc(Nc2cccn([C@H]3C[C@H](OC)C3)c2=O)nc2c(C(=O)N[C@H]3CCC3(F)F)cnn12` [Compound I-293] registered an IC50 of under 0.1 µM.

`CNc1cc(Nc2cccn([C@H]3C[C@@H](OC)C3)c2=O)nc2c(C(=O)NC3CCC3(F)F)cnn12` (stereo partly drawn) [Compound I-295] came in with an IC50 of under 0.1 µM.

On to `CNc1cc(Nc2cccn([C@H]3C[C@@H](OC)C3)c2=O)nc2c(C(=O)N[C@H]3CCC3(F)F)cnn12` [Compound I-296], for which the IC50 is under 0.1 µM.

`CNc1cc(Nc2cccn([C@@H]3CCC[C@@H]3O)c2=O)nc2c(C(=O)NC3CCC3(F)F)cnn12` (stereo partly drawn) [Compound I-303] had an IC50 of under 0.1 µM.

On to `CNc1cc(Nc2cccn([C@@H]3CCC[C@@H]3O)c2=O)nc2c(C(=O)N[C@@H]3CCC3(F)F)cnn12` [Compound I-305], for which the IC50 is under 0.1 µM.

In turn, `CNc1cc(Nc2cccn([C@H]3[C@@H]4COC[C@@H]43)c2=O)nc2c(C(=O)NC3CCC3(F)F)cnn12` (stereo partly drawn) [Compound I-306] came in with an IC50 of under 0.1 µM.

In turn, `CNc1cc(Nc2cccn([C@H]3[C@@H]4COC[C@@H]43)c2=O)nc2c(C(=O)N[C@H]3CCC3(F)F)cnn12` [Compound I-307] yielded an IC50 of under 0.1 µM.

Turning to `CNc1cc(Nc2cccn(C3CCOCC3)c2=O)nc2c(C(=O)NC3CCC3(F)F)cnn12` (stereo not drawn) [Compound I-309], the IC50 was under 0.1 µM.

On to `CNc1cc(Nc2cccn(C3CCOCC3)c2=O)nc2c(C(=O)N[C@@H]3CCC3(F)F)cnn12` [Compound I-311], for which the IC50 was under 0.1 µM.

`CNc1cc(Nc2cccn([C@H]3CCCOC3)c2=O)nc2c(C(=O)NC3CCC3(F)F)cnn12` (stereo partly drawn) [Compound I-312] had an IC50 of under 0.1 µM.

As for `CNc1cc(Nc2cccn([C@H]3CCCOC3)c2=O)nc2c(C(=O)N[C@@H]3CCC3(F)F)cnn12` [Compound I-314], the half-maximal inhibitory concentration (IC50) was under 0.1 µM.

For `CNc1cc(Nc2cccn([C@@H]3CCCOC3)c2=O)nc2c(C(=O)NC3CCC3(F)F)cnn12` (stereo partly drawn) [Compound I-315], the half-maximal inhibitory concentration (IC50) is under 0.1 µM.

On to `CNc1cc(Nc2cccn([C@@H]3CCCOC3)c2=O)nc2c(C(=O)N[C@@H]3CCC3(F)F)cnn12` [Compound I-317], for which the IC50 is under 0.1 µM.

For `CNc1cc(Nc2cccn(-c3ccccn3)c2=O)nc2c(C(=O)NC3CCC3(F)F)cnn12` (stereo not drawn) [Compound I-318], the IC50 is under 0.1 µM.

`CNc1cc(Nc2cccn(-c3ccccn3)c2=O)nc2c(C(=O)N[C@@H]3CCC3(F)F)cnn12` [Compound I-320] gave an IC50 of under 0.1 µM.

The record behind these values is patent US12221453B2, “Substituted pyrazolo[5′,1′:2,3]pyrimido[5,4-b][1,4]oxazines as TYK2 inhibitors” (TAKEDA PHARMACEUTICAL COMPANY LIMITED, priority 2018, dated 2025).
